Test: xn = mol fraction of the nth substance listed
Details: Liquid, Vibrating tube method

COC(=O)OC [dimethyl carbonate] + CCCCCC
mass density [kg/m3]
Details | 100 kPa | 5000 kPa | 10000 kPa | 20000 kPa | 30000 kPa | 40000 kPa
298.15 K, x1 = 0.1 | – | – | 690.3 | 699.8 | 708.4 | 716
298.15 K, x1 = 0.2 | – | – | 718 | 727.7 | 736.4 | 744.2
298.15 K, x1 = 0.3 | – | – | 748.6 | 758.3 | 767.2 | 775.1
298.15 K, x1 = 0.4 | – | – | 782.2 | 792 | 800.9 | 808.9
298.15 K, x1 = 0.5 | – | – | 819.3 | 829.1 | 838 | 846.1
298.15 K, x1 = 0.6 | – | 854.9 | 860.2 | 869.9 | 878.8 | 886.9
298.15 K, x1 = 0.7 | – | 900.2 | 905.3 | 914.9 | 923.7 | 931.7
298.15 K, x1 = 0.8 | – | 950.8 | 955.8 | 965.1 | 973.7 | 981.6
298.15 K, x1 = 0.9 | – | 1007.3 | 1012 | 1020.8 | 1029.1 | 1036.9
298.15 K, x1 = 0.95 | – | 1036.9 | 1041.5 | 1050.2 | 1058.2 | 1065.9
298.15 K, x1 = 1 | – | 1068 | 1072.4 | 1080.8 | 1088.7 | 1096.2
303.15 K, x1 = 0.1 | 674.6 | 680.3 | 685.7 | – | – | –
303.15 K, x1 = 0.2 | 701.9 | 707.7 | 713.3 | – | – | –
303.15 K, x1 = 0.3 | 732.2 | 738 | 743.6 | – | – | –
303.15 K, x1 = 0.4 | 765.6 | 771.5 | 777.1 | – | – | –
303.15 K, x1 = 0.5 | 802.5 | 808.3 | 813.9 | – | – | –
303.15 K, x1 = 0.6 | 843.3 | 849.5 | 855 | – | – | –
303.15 K, x1 = 0.7 | 888.5 | 894.5 | 899.9 | – | – | –
303.15 K, x1 = 0.8 | 939.1 | 944.8 | 950 | – | – | –
303.15 K, x1 = 0.9 | 995.7 | 1000.9 | 1005.9 | – | – | –
303.15 K, x1 = 0.95 | 1025.4 | 1030.4 | 1035.2 | – | – | –
303.15 K, x1 = 1 | 1056.5 | 1061.3 | 1066 | – | – | –

Source: the NIST ThermoML archive (doi:10.1016/j.jct.2010.06.011)
